From patent US20260102501A1, “ANTI-CANCER NUCLEAR HORMONE RECEPTOR-TARGETING COMPOUNDS” (Nuvation Bio Inc., priority 2022, published 2026)
Structures can show the parent of a compound that is named as a salt. Where two headings read alike, the source gives them in different places. Numbered stars: 1 amine (or outer) side, 2 acyl side, 3 side chain; on linkers, the order of the positions; unused ones are H or OH. Square brackets hold non-standard residues; d marks the D form. Peptide text beside a SMILES is read from it. * marks the point of attachment. X1 = CC(=O)O[C@]1(C(C)=O)CC[C@H]2[C@@H]3CCC4=CC(=O)CCC4=C3[C@@H](c3ccc(*)cc3)C[C@@]21C; Exatecan = CC[C@@]1(O)C(=O)OCc2c1cc1n(c2=O)Cc2c-1nc1cc(F)c(C)c3c1c2[C@@H](N*)CC3; NHCH2OCH2CO = O=C(COCN[*:1])[*:2]; Sar = CNCC(=O)O

What was measured:
LNCap cells = assay: Cell viability assay (CellTiterGlo); type: cell-based; settings: Homo sapiens, 144 h
[1] = biological target: T1, AR (cytosol from LnCaP cells) (Homo sapiens, UniProt P10275, T878A); assay: AR binding assay (3H-R1881 displacement)
T1 sequence (P10275 1-920 T878A): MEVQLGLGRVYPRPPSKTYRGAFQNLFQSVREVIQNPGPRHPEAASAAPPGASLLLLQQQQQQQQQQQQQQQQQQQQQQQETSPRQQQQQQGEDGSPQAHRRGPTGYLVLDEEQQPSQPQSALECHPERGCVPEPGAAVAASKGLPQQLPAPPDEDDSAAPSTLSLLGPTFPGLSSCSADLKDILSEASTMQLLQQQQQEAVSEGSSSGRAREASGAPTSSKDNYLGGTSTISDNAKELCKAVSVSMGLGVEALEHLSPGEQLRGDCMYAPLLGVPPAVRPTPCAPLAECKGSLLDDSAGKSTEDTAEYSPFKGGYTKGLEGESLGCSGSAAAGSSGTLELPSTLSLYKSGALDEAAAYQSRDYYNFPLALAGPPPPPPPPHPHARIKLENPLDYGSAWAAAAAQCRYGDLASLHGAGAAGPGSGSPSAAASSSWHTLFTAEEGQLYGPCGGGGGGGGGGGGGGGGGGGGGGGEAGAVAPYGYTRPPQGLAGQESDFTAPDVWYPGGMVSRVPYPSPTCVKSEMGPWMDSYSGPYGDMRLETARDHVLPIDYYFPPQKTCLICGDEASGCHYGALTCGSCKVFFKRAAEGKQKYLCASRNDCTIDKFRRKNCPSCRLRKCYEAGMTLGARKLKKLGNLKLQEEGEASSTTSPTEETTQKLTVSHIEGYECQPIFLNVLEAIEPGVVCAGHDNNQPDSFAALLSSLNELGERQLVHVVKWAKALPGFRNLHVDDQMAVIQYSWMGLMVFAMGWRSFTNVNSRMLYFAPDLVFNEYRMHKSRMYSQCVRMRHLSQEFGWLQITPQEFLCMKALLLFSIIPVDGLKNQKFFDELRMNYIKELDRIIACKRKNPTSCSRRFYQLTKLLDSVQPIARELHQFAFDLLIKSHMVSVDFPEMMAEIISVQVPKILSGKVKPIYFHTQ
Protocol: The plate was then centrifuged at 3000 rpm for 30 minutes at 4° C.

[2] = biological target: T2, ligand binding domain of the glucocorticoid receptor (HEK293 cells stably expressing) (Homo sapiens, UniProt P04150); assay: GR antagonism assay (luciferase reporter)
T2 sequence (P04150 524-758 limits assumed): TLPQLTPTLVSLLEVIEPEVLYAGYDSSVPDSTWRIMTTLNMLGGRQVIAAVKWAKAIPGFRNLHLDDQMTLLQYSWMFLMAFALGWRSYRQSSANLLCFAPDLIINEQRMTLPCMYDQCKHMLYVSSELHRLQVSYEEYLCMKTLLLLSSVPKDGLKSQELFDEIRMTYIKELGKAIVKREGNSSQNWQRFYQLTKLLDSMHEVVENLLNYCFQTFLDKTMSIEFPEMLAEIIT

[3] = biological target: T3, GR (cytosol from IM-9 cells) (Homo sapiens, UniProt P04150); assay: GR binding assay (3H-Dexamethasone displacement)
T3 sequence (P04150 1-777): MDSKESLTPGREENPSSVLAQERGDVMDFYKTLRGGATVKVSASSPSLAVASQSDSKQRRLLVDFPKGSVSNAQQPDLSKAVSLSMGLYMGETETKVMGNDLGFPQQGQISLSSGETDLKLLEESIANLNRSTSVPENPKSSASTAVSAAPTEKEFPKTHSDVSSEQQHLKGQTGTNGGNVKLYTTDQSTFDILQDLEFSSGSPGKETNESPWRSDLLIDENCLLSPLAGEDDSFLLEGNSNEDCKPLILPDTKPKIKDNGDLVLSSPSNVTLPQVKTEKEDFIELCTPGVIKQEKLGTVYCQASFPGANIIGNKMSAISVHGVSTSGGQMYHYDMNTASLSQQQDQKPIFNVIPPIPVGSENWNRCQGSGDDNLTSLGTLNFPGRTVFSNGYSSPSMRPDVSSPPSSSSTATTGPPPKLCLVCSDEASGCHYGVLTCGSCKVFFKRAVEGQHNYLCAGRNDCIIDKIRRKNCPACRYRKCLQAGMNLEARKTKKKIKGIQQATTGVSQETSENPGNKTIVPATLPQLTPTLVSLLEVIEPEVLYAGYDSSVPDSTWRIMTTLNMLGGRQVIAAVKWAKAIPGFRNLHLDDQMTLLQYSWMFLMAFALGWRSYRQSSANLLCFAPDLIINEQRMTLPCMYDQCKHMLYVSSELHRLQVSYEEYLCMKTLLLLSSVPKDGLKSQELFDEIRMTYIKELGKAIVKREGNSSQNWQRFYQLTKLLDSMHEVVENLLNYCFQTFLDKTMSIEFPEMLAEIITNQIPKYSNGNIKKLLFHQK

[4] = 6 days incubation, CellTiterGlo, read-out: LNCap (IC50)

Question: What does the source list for `CC[C@@]1(O)C(=O)OCc2c1cc1n(c2=O)Cc2cc3c(CN4CCN(C(=O)C5CCN(c6ccc(C(=O)N[C@H]7CC[C@H](Oc8ccc(C#N)c(Cl)c8C)CC7)nn6)CC5)CC4)c(OC(=O)N4C[C@H](C)N(C)C[C@H]4C)ccc3nc2-1` [Compound 30, (S)-10-((4-(1-(6-(((1r,4r)-4-(3-Chloro-4-cyano-2-methylphenoxy)cyclohexyl)carbamoyl)-pyridazin-3-yl)piperidine-4-carbonyl)piperazin-1-yl)methyl)-4-ethyl-4-hydroxy-3,14-dioxo-3,4,12,14-tetrahydro-1H-pyrano[3′,4′:6,7]indolizino[1,2-b]quinolin-9-yl (2R,5S)-2,4,5-trimethylpiperazine-1-carboxylate Formate]?
Answer: IC50 (LNCap cells; read-out: LNCap (IC50, nM)): 10 to 100 nM; IC50 [1]: < 10 nM; IC50 [2]: > 1000 nM; IC50 [3]: > 1000 nM

Question: How did the IC50 (LNCap cells; read-out: LNCap (IC50, nM)) turn out when `CC[C@@]1(O)C(=O)OCc2c1cc1n(c2=O)Cc2cc3c(CN(C)C)c(OC(=O)N4CCN(CC5CCN(c6ccc(C(=O)N[C@H]7CC[C@H](Oc8ccc(C#N)c(Cl)c8C)CC7)nn6)CC5)CC4)ccc3nc2-1` [Compound 31, (S)-10-((Dimethylamino)methyl)-4-ethyl-4-hydroxy-3,14-dioxo-3,4,12,14-tetrahydro-1H-pyrano[3′,4′:6,7]indolizino[1,2-b]quinolin-9-yl 4-((1-(6-(((1r,4r)-4-(3-chloro-4-cyano-2-methylphenoxy)cyclohexyl)carbamoyl)pyridazin-3-yl)piperidin-4-yl)methyl)piperazine-1-carboxylate Formate] was run?
Answer: 10 to 100 nM

Question: What about the IC50 [1] of the same molecule?
Answer: < 10 nM

Question: What about the IC50 [2] of the same molecule?
Answer: > 1000 nM

Question: What about the IC50 [3] of the same molecule?
Answer: > 1000 nM

Question: With `CC[C@@]1(O)C(=O)OCc2c1cc1n(c2=O)Cc2c-1nc1cc(F)c(C)c3c1c2[C@@H](NC(=O)COCNC(=O)CNC(=O)[C@H](Cc1ccccc1)NC(=O)CNC(=O)CN(C)c1ccc([C@H]2C[C@@]4(C)[C@@H](CC[C@]4(OC(C)=O)C(C)=O)[C@@H]4CCC5=CC(=O)CCC5=C42)cc1)CC3` [Compound 34, (8S,11R,13S,14S,17R)-17-Acetyl-11-(4-(((S)-10-benzyl-1-(((1S,9S)-9-ethyl-5-fluoro-9-hydroxy-4-methyl-10,13-dioxo-2,3,9,10,13,15-hexahydro-1H,12H-benzo[de]pyrano[3′,4′:6,7]indolizino[1,2-b]quinolin-1-yl)amino)-1,6,9, 12,15-pentaoxo-3-oxa-5,8,11,14-tetraazahexadecan-16-yl)(methyl)amino)phenyl)-13-methyl-3-oxo-2,3,6,7,8,11,12,13,14,15,16,17-dodecahydro-1H-cyclopenta[a]phenanthren-17-yl Acetate] (X1-[Sar]GFG[NHCH2OCH2CO]-Exatecan) as the molecule, how does the IC50 [1] read?
Answer: 10 to 100 nM

Question: What about the IC50 [2] of the same molecule?
Answer: 101 to 1000 nM

Question: What about the IC50 [3] of the same molecule?
Answer: < 10 nM

Question: What does the source list for `CC[C@@]1(O)C(=O)OCc2c1cc1n(c2=O)Cc2cc3c(CN4CCN(CCCCCCN(C)c5ccc([C@H]6C[C@@]7(C)[C@@H](CC[C@]7(OC(C)=O)C(C)=O)[C@@H]7CCC8=CC(=O)CCC8=C76)cc5)CC4)c(O)ccc3nc2-1` [Compound 36, (8S,11R,13S,14S,17R)-17-acetyl-11-(4-((6-(4-(((S)-4-ethyl-4,9-dihydroxy-3,14-dioxo-3,4,12,14-tetrahydro-1H-pyrano[3′,4′:6,7]indolizino[1,2-b]quinolin-10-yl)methyl)piperazin-1-yl)hexyl)(methyl)amino)phenyl)-13-methyl-3-oxo-2,3,6,7,8,11,12,13,14,15,16,17-dodecahydro-1H-cyclopenta[a]phenanthren-17-yl acetate]?
Answer: IC50 (LNCap cells; [4]): 10 to 100 nM; IC50 [1]: 10 to 100 nM; IC50 [2]: < 10 nM; IC50 [3]: 101 to 1000 nM

Question: Which IC50 (LNCap cells; [4]) does the source give for `CC[C@@]1(O)C(=O)OCc2c1cc1n(c2=O)Cc2c-1nc1cc(F)c(C)c3c1c2[C@@H](N(C)C(=O)COCC1CCN(CCCCCCCN(C)c2ccc([C@H]4C[C@@]5(C)[C@@H](CC[C@]5(OC(C)=O)C(C)=O)[C@@H]5CCC6=CC(=O)CCC6=C54)cc2)CC1)CC3` [Compound 55, (8S,11R,13S,14S,17R)-17-acetyl-11-(4-((7-(4-((2-(((1S,9S)-9-ethyl-5-fluoro-9-hydroxy-4-methyl-10,13-dioxo-2,3,9,10,13,15-hexahydro-1H,12H-benzo[de]pyrano[3′,4′:6,7]indolizino[1,2-b]quinolin-1-yl)(methyl)amino)-2-oxoethoxy)methyl)piperidin-1-yl)heptyl)(methyl)amino)phenyl)-13-methyl-3-oxo-2,3,6,7,8,11,12,13,14,15,16,17-dodecahydro-1H-cyclopenta[a]phenanthren-17-yl acetate] here?
Answer: 101 to 1000 nM

Question: And the IC50 [1]?
Answer: 10 to 100 nM

Question: What about the IC50 [2] of the same molecule?
Answer: 10 to 100 nM

Question: What about the IC50 [3] of the same molecule?
Answer: < 10 nM

Question: `CC[C@@]1(O)C(=O)OCc2c1cc1n(c2=O)Cc2cc3c(CN(C)C)c(OCC4CCN(C(=O)CN(C)c5ccc([C@H]6C[C@@]7(C)[C@@H](CC[C@]7(OC(C)=O)C(C)=O)[C@@H]7CCC8=CC(=O)CCC8=C76)cc5)CC4)ccc3nc2-1` [Compound No. 19, (8S,11R,13S,14S,17R)-17-Acetyl-11-(4-((2-(4-((((S)-10-((dimethylamino)methyl)-4-ethyl-4-hydroxy-3,14-dioxo-3,4,12,14-tetrahydro-1H-pyrano[3′,4′:6,7]indolizino[1,2-b]quinolin-9-yl)oxy)methyl)-piperidin-1-yl)-2-oxoethyl)(methyl)amino)phenyl)-13-methyl-3-oxo-2,3,6,7,8,11,12,13,14,15,16,17-dodeca-hydro-1H-cyclopenta[a]phenanthren-17-yl acetate] was tested. Which IC50 (LNCap cells; [4]) did it give?
Answer: 101 to 1000 nM

Question: What about the IC50 [1] of the same molecule?
Answer: 10 to 100 nM

Question: And the IC50 [2]?
Answer: 10 to 100 nM

Question: What about the IC50 [3] of the same molecule?
Answer: < 10 nM

Question: With `CC[C@@]1(O)C(=O)OCc2c1cc1n(c2=O)Cc2c-1nc1cc(F)c(C)c3c1c2[C@@H](NC(=O)COCCCCCCN(C)c1ccc([C@H]2C[C@@]4(C)[C@@H](CC[C@]4(OC(C)=O)C(C)=O)[C@@H]4CCC5=CC(=O)CCC5=C42)cc1)CC3` [Compound No. 47, (8S,11R,13S,14S,17R)-17-acetyl-11-(4-((6-(2-(((1S,9S)-9-ethyl-5-fluoro-9-hydroxy-4-methyl-10,13-dioxo-2,3,9,10,13,15-hexahydro-1H,12H-benzo[de]pyrano [3′,4′:6,7]indolizino[1,2-b]quinolin-1-yl)amino)-2-oxoethoxy)hexyl)(methyl)amino)phenyl)-13-methyl-3-oxo-2,3,6,7,8,11,12,13,14,15,16,17-dodecahydro-1H-cyclopenta[a]phenanthren-17-yl acetate] as the molecule, how does the IC50 (LNCap cells; [4]) read?
Answer: 10 to 100 nM

Question: And the IC50 [1]?
Answer: 10 to 100 nM

Question: What about the IC50 [2] of the same molecule?
Answer: 101 to 1000 nM

Question: And the IC50 [3]?
Answer: < 10 nM
